Organism: Rattus norvegicus
Assay: The compound was tested for inhibition of Sodium-Phosphate co-transport in rat renal Brush border membrane
Assay type: functional

Ki: 360 µM
SMILES: O=P(O)(O)C(F)P(=O)(O)c1ccccc1 (stereo unspecified)

Reference: ChEMBL document CHEMBL1128314, “Absolute configuration of (+)-[fluoro(hydroxyphenylphosphinyl)methyl]-phosphonic acid, a specific inhibitor of Na(+)-gradient-dependent Na(+)-phosphate cotransport across renal brush border membrane, by X-ray crystallographic analysis of its (-)-quinine salt” (J Med Chem, 1995)
